TGI data for 16 compounds are collected here from PubChem BioAssay (NCI).

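Five concentrations, 48 hours, 96-well plates. The concentration for full growth arrest is given as TGI.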

Among the test systems are SW-620 colon; OVCAR-4 ovarian; MDA-MB-435; NCI/ADR-RES ovarian; U251 CNS; HCC-2998 colon; SK-MEL-5 melanoma; TK-10 renal; PC-3 prostate; HL-60(TB) leukemia.
Test in all cases: NCI-60 cell line screen, 48 h

Turning to `[N-]=[N+]=NC(c1cn(C2CC(O)C(CO)O2)c(=O)[nH]c1=O)C(Cl)I` (configuration not stated), the TGI with SW-620 colon, in the experiment on OVCAR-4 ovarian, with MDA-MB-435, with NCI/ADR-RES ovarian, in the experiment with U251 CNS and in the experiment on HCC-2998 colon was more than 100 µM in each case. Also, the TGI in the experiment with SK-MEL-5 melanoma and with TK-10 renal was more than 100 µM each time.

In the case of `Cc1c2c(c(O)c3c(O)cccc13)C(=O)C1(O)C(O)=C(C(=O)NCNc3ccc(C(N)=O)cn3)C(=O)C(N(C)C)C1C2` (configuration not stated), the TGI with SW-620 colon was 42 µM; with OVCAR-4 ovarian, 5.85 µM; in the experiment with MDA-MB-435 it was 27.1 µM; in the experiment with NCI/ADR-RES ovarian, more than 100 µM; in the experiment with U251 CNS it was 18.5 µM; in the experiment with HCC-2998 colon, 8.66 µM. Also, the TGI came out at 30.7 µM in the experiment with PC-3 prostate, 11.2 µM in the experiment with SK-MEL-5 melanoma and 49.2 µM in the experiment on TK-10 renal.

On to `S=C1CCSc2c(ccc3ccccc23)N1`, for which the TGI in the experiment with HL-60(TB) leukemia, in the experiment with OVCAR-4 ovarian, with MDA-MB-435, in the experiment with NCI/ADR-RES ovarian, with U251 CNS and with PC-3 prostate was more than 100 µM throughout. Moreover, the TGI with SK-MEL-5 melanoma and in the experiment with TK-10 renal was more than 100 µM each time.

In the case of `CC1=C(O)C(=O)C2C(=O)C1C1Cc3ccccc3C21` (configuration not stated), the TGI in the experiment with HL-60(TB) leukemia, in the experiment with SW-620 colon, in the experiment with OVCAR-4 ovarian, with U251 CNS, in the experiment with HCC-2998 colon and in the experiment with SK-MEL-5 melanoma was more than 100 µM each time. For the same compound, the TGI in the experiment on TK-10 renal is more than 100 µM.

As to `COc1ccc(C2SCC(=O)N2NC(=O)c2ccc(NC(C)=O)cc2)c(OC)c1` (configuration not stated), the TGI in the experiment with HL-60(TB) leukemia, in the experiment on SW-620 colon, with OVCAR-4 ovarian, in the experiment on MDA-MB-435, in the experiment with NCI/ADR-RES ovarian and in the experiment with U251 CNS was more than 100 µM throughout. In addition, the TGI with HCC-2998 colon, with SK-MEL-5 melanoma and in the experiment on TK-10 renal was more than 100 µM throughout.

With `COc1ccccc1-c1cc(=O)c2cc3c(cc2[nH]1)OCO3`, the TGI is more than 100 µM in the experiment on HL-60(TB) leukemia; more than 100 µM with SW-620 colon; 92 µM in the experiment on OVCAR-4 ovarian; more than 100 µM in the experiment with U251 CNS; more than 100 µM in the experiment on HCC-2998 colon; more than 100 µM in the experiment on SK-MEL-5 melanoma. The compound also came in with a TGI with TK-10 renal of more than 100 µM.

On to `N#CC(Cc1ccccc1)N(CCC1=CCCCC1)Cc1ccccc1` (configuration not stated), for which the TGI in the experiment on SW-620 colon is more than 100 µM; with OVCAR-4 ovarian, more than 100 µM; in the experiment with MDA-MB-435, 91.1 µM; in the experiment with NCI/ADR-RES ovarian it was more than 100 µM; with U251 CNS it was more than 100 µM; in the experiment with HCC-2998 colon, more than 100 µM. Also, the values for the TGI in the experiment on PC-3 prostate, in the experiment on SK-MEL-5 melanoma and in the experiment with TK-10 renal were more than 100 µM, 51.9 µM and more than 100 µM, respectively.

In the case of `C/C(CC(O)(/C=N/O)c1ccccc1)=N/O` (configuration not stated), the TGI in the experiment on SW-620 colon, in the experiment on OVCAR-4 ovarian, with MDA-MB-435, in the experiment on NCI/ADR-RES ovarian, in the experiment on U251 CNS and with HCC-2998 colon was more than 100 µM throughout. The TGI in the experiment on PC-3 prostate, with SK-MEL-5 melanoma and in the experiment on TK-10 renal was more than 100 µM throughout.

On to `COc1ccc(/C(Cl)=C(\C=N/O)c2ccc(OC)c(OC)c2)cc1OC`, for which the TGI in the experiment on HL-60(TB) leukemia, in the experiment on SW-620 colon, in the experiment on OVCAR-4 ovarian, with U251 CNS, in the experiment with HCC-2998 colon and in the experiment with SK-MEL-5 melanoma was more than 100 µM each time. In the experiment on TK-10 renal, this compound showed a TGI of more than 100 µM.

Take `Cc1cc(/C=C/c2cc[n+](C)c3ccccc23)c(O)c2ncccc12`: the TGI is more than 26.9 µM in the experiment with HL-60(TB) leukemia; 19.3 µM in the experiment with SW-620 colon; 32.4 µM with OVCAR-4 ovarian; 13.5 µM in the experiment with U251 CNS; 14.5 µM with HCC-2998 colon; 4.98 µM with SK-MEL-5 melanoma. This compound returned a TGI with TK-10 renal of 17.5 µM.

For the compound `Cc1c(N2CCN(C)CC2)nc2ccc(Cl)cc2c1-c1ccccc1`, the TGI in the experiment on HL-60(TB) leukemia was 34.5 µM; in the experiment on SW-620 colon, 34.6 µM; with OVCAR-4 ovarian, 36.9 µM; with U251 CNS, 33.1 µM; with HCC-2998 colon, more than 10 µM; with SK-MEL-5 melanoma, 28.8 µM. Further, the TGI in the experiment on TK-10 renal is more than 10 µM.

For `COC1C(O)C(n2ncc3c(SC)nc(SC)nc32)OC1C(O)CO` (configuration not stated), the TGI in the experiment on HL-60(TB) leukemia, in the experiment on SW-620 colon, in the experiment with OVCAR-4 ovarian, with NCI/ADR-RES ovarian, in the experiment with U251 CNS and with HCC-2998 colon was more than 100 µM each time. Further, the TGI in the experiment with SK-MEL-5 melanoma was more than 100 µM.

For the compound `COC1CC(COCc2ccccc2)CC(OC)O1` (configuration not stated), the TGI with HL-60(TB) leukemia was 1.84 µM; in the experiment on SW-620 colon, more than 100 µM; in the experiment on MDA-MB-435, more than 100 µM; with NCI/ADR-RES ovarian it was more than 100 µM; with HCC-2998 colon, more than 100 µM; in the experiment with SK-MEL-5 melanoma, more than 100 µM. Also, the TGI in the experiment on TK-10 renal is more than 100 µM.

As to `O=c1c2cc3c(=O)n4c(cc(-c5ccccc5)c5cc(Cl)ccc54)nc3cc2nc2cc(-c3ccccc3)c3cc(Cl)ccc3n12`, the TGI in the experiment with SW-620 colon, in the experiment on MDA-MB-435, in the experiment with NCI/ADR-RES ovarian, with U251 CNS, with HCC-2998 colon and with PC-3 prostate was more than 100 µM throughout. For the same compound, the TGI in the experiment with SK-MEL-5 melanoma and with TK-10 renal was more than 100 µM each time.

Turning to `COc1cc(-c2cc(=O)c3c(O)c(CC=C(C)C)c(O)cc3o2)ccc1O`, the TGI with HL-60(TB) leukemia is more than 50 µM; with SW-620 colon, more than 50 µM; in the experiment on OVCAR-4 ovarian, 43.6 µM; with MDA-MB-435, 22 µM; in the experiment on NCI/ADR-RES ovarian, more than 50 µM; in the experiment with U251 CNS it was more than 50 µM. The TGI with PC-3 prostate, in the experiment with SK-MEL-5 melanoma and in the experiment on TK-10 renal was more than 50 µM throughout.

For `COC(O)C(=O)c1ccc2c(c1)CC1(C2)Cc2cc3c(cc2C1=O)CCC3` (configuration not stated), the TGI is 30.3 µM with SW-620 colon; 30.4 µM with OVCAR-4 ovarian; 35.3 µM in the experiment with MDA-MB-435; more than 100 µM with NCI/ADR-RES ovarian; 35.5 µM in the experiment on U251 CNS; 38.6 µM in the experiment on HCC-2998 colon. Moreover, the results for the TGI in the experiment on PC-3 prostate, in the experiment on SK-MEL-5 melanoma and in the experiment with TK-10 renal were 30.8 µM, 29.4 µM and 36.2 µM, respectively.
